Experiment: mn = molality of the nth substance listed, in mol/kg
Settings: 101.3 kPa, Liquid; for viscosity: Capillary tube (Ostwald / Ubbelohde) method; for mass density: Vibrating tube method

C[C@@H](O)[C@H](N)C(=O)O [L-threonine] + O
Settings | mass density, 293.15 K [kg/m3] | mass density, 303.15 K [kg/m3] | mass density, 313.15 K [kg/m3] | mass density, 323.15 K [kg/m3] | viscosity, 293.15 K [mPa·s] | viscosity, 303.15 K [mPa·s] | viscosity, 313.15 K [mPa·s] | viscosity, 323.15 K [mPa·s]
m1 = 0.0999 | 1002.41 | 999.81 | 996.32 | 992.11 | 1.035 | 0.823 | 0.673 | 0.562
m1 = 0.1999 | 1006.56 | 1003.9 | 1000.37 | 996.12 | 1.072 | 0.849 | 0.693 | 0.579
m1 = 0.2999 | 1010.63 | 1007.92 | 1004.34 | 1000.05 | 1.107 | 0.876 | 0.714 | 0.595
m1 = 0.4002 | 1014.64 | 1011.87 | 1008.25 | 1003.93 | 1.145 | 0.905 | 0.736 | 0.613
m1 = 0.5 | 1018.55 | 1015.73 | 1012.07 | 1007.71 | 1.184 | 0.934 | 0.759 | 0.63
m1 = 0.6 | 1022.4 | 1019.52 | 1015.83 | 1011.44 | 1.225 | 0.965 | 0.782 | 0.649
m1 = 0.6998 | 1026.16 | 1023.24 | 1019.52 | 1015.1 | 1.269 | 0.996 | 0.806 | 0.667
